Test results published in ChEMBL document CHEMBL4715878 (J Med Chem, 2020).
Active and inactive are the calls of the source. The calls are words filed in the database; no cut-off is given here.

How the values were obtained:
BT-474 [1] = assay: Induction of apoptosis in human BT474 cells assessed as increase in late apoptotic cells at 0.5 to 5 uM incubated for 72 hrs by Annexin V-FITC/PI staining based flow cytometry analysis relative to control; assay type: functional; details: dose 0.5-5 µM
[2] = test system: Panel NCI-60 (60 carcinoma cell lines); assay: Antiproliferative activity against human NCI60 cells assessed as lethality at 10 uM after 48 hrs by SRB assay relative to control; assay type: functional
MDA-MB-468 [3] = assay: Antiproliferative activity against human MDA-MB-468 cells assessed as cell growth inhibition after 48 hrs by SRB assay; assay type: functional
MCF7 [4] = assay: Induction of apoptosis in human MCF7 cells assessed as accumulation in late apoptotic cells at 5 uM incubated for 72 hrs by Annexin V-FITC/PI staining based flow cytometry analysis; assay type: functional, cell-based
MDA-MB-231 [5] = assay: Induction of apoptosis in human MDA-MB-231 cells assessed as accumulation in early apoptotic cells at 5 uM incubated for 72 hrs by Annexin V-FITC/PI staining based flow cytometry analysis; assay type: functional, cell-based
BT-474 [6] = assay: Induction of apoptosis in human BT474 cells assessed as increase in early apoptotic cells at 0.5 to 5 uM incubated for 72 hrs by Annexin V-FITC/PI staining based flow cytometry analysis relative to control; assay type: functional; details: dose 0.5-5 µM
in vitro [7] = details: CD-1, mouse, liver microsomes
MCF7 [8] = assay: Potency index, ratio of lapatinib IC50 to test compound IC50 for antiproliferative activity against human MCF7 cells; assay type: functional
BT-474 [9] = assay: Antitumor activity against human BT474 cells xenografted in athymic nude mouse assessed as reduction in metastasis of cells at 50 mg/kg, po administered via oral gavage for 5 times per week for 55 days measured post-last dose; assay type: functional, organism-based; details: time 55.0 day
in vitro [10] = details: CD-1, mouse, liver microsomes; remark: listed apart in the source
[11] = Antiproliferative activity against human BC assessed as lethality at 10 uM after 48 hrs by SRB assay relative to control; assay type: functional
T47D = assay: Antiproliferative activity against human T47D cells assessed as cell growth inhibition after 48 hrs by SRB assay; assay type: functional; details: pooled result: one value given for 5 cell lines, strains, targets or settings
[12] = Antiproliferative activity against human BC assessed as cell growth inhibition at 10 uM after 48 hrs by SRB assay relative to control; assay type: functional; details: read-out: GI
MDA-MB-468 [13] = assay: Antiproliferative activity against human MDA-MB-468 cells assessed as cell growth inhibition at 10 uM after 48 hrs by SRB assay relative to control; assay type: functional; details: read-out: GI
BT-474 [14] = assay: Antitumor activity against human BT474 cells xenografted in athymic nude mouse assessed as tumor growth inhibition at 50 mg/kg, po administered via oral gavage for 5 times in a week for 55 days measured post last dose; assay type: functional, organism-based; details: time 55.0 day
BT-474 [15] = assay: Antitumor activity against human BT474 cells xenografted in athymic nude mouse assessed as inflammation in tumors at 50 mg/kg, po administered via oral gavage for 5 times per week for 55 days measured post-last dose by H and E staining based immunohistochemical analysis; assay type: functional, organism-based; details: time 55.0 day
BT-474 [16] = assay: Antitumor activity against human BT474 cells xenografted in athymic nude mouse assessed as suppression of tumor growth by measuring decrease in number of Ki67 positive cells at 50 mg/kg, po administered via oral gavage for 5 times per week for 55 days measured post-last dose by Ki67-staining based immunohistochemistry; assay type: functional, organism-based; details: time 55.0 day
[17] = biological target: T1, Receptor tyrosine-protein kinase erbB-2 (Homo sapiens, UniProt P04626); assay: Inhibition of wild-type HER2 (unknown origin) at 0.5 nM in presence of substrate incubated for 30 mins by ADP-Glo assay relative to control
T1 sequence (P04626 whole entry): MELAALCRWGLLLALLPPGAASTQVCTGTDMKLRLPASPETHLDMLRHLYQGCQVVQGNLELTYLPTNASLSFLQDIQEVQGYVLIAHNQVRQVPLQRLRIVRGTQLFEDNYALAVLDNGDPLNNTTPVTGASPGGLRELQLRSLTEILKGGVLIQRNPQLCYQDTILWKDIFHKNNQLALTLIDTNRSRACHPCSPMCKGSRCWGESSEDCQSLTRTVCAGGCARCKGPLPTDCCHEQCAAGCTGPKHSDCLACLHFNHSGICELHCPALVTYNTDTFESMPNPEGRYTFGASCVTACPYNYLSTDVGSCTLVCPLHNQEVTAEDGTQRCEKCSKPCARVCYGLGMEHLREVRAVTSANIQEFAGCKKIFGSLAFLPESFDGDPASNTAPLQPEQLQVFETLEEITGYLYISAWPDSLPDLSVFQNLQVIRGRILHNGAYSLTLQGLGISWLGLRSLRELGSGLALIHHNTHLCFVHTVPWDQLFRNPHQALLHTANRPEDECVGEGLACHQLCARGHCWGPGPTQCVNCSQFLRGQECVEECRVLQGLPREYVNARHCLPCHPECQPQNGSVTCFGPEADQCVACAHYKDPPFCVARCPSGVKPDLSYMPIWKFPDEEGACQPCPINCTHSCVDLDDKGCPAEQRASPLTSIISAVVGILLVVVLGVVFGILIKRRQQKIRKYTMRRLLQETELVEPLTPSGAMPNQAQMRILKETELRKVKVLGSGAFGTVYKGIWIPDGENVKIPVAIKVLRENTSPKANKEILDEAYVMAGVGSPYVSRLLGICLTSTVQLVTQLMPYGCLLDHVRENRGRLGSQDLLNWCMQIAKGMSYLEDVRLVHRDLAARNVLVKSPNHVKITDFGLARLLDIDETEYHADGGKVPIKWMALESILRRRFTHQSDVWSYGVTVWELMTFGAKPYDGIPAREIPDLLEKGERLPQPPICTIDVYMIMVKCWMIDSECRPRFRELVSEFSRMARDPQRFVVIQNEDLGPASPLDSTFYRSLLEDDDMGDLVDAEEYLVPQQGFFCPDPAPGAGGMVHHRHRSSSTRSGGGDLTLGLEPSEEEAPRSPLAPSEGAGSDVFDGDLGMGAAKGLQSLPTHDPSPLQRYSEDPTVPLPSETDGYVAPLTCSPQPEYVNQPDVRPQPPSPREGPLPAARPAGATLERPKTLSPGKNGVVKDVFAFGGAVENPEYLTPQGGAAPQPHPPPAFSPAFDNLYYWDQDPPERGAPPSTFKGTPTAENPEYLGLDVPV

AU565 [18] = assay: Down regulation of HER2 expression in human AU565 cells at 0.1 IC50 incubated for 24 hrs by western blot analysis; assay type: functional, cell-based
BT-474 [19] = assay: Antiproliferative activity against human BT474 cells assessed as reduction in cell viability incubated for 72 hrs by WST8 assay; assay type: functional, cell-based; details: BT-474, 72 h
in vitro [20] = details: CD-1, mouse, liver microsomes; remark: listed apart in the source
Description: Metabolic stability in CD-1 mouse liver microsomes assessed as parent compound remaining at 100 uM measured after 60 mins by LC-MS/MS analysis

MDA-MB-231 [21] = assay: Induction of apoptosis in human MDA-MB-231 cells assessed as accumulation in late apoptotic cells at 5 uM incubated for 72 hrs by Annexin V-FITC/PI staining based flow cytometry analysis; assay type: functional, cell-based
in vitro [22] = details: CD-1, mouse, microsomes
AU565 [23] = assay: Antiproliferative activity against human AU565 cells assessed as reduction in cell viability incubated for 72 hrs by WST8 assay; assay type: functional, cell-based; details: AU565, 72 h
MCF7 [24] = assay: Induction of apoptosis in human MCF7 cells assessed as accumulation in early apoptotic cells at 5 uM incubated for 72 hrs by Annexin V-FITC/PI staining based flow cytometry analysis; assay type: functional, cell-based
[25] = biological target: T1, Receptor tyrosine-protein kinase erbB-2; assay: Inhibition of HER2 (unknown origin) in presence of substrate incubated for 30 mins by ADP-Glo assay
MDA-MB-231 [26] = assay: Antiproliferative activity against human MDA-MB-231 cells assessed as reduction in cell viability incubated for 72 hrs by WST8 assay; assay type: functional, cell-based; details: MDA-MB-231, 72 h
[27] = biological target: T1, Receptor tyrosine-protein kinase erbB-2; assay: Inhibition of wild-type HER2 (unknown origin) at 100 nM in presence of substrate incubated for 30 mins by ADP-Glo assay relative to control
BT-474 [28] = assay: Antitumor activity against human BT474 cells xenografted in athymic nude mouse assessed as appearance of tumor fibrosis at 50 mg/kg, po administered via oral gavage for 5 times in a week for 55 days measured post-last dose by H and E staining based immunohistochemical analysis; assay type: functional, organism-based; details: time 55.0 day
BT-474 [29] = assay: Induction of apoptosis in human BT474 cells assessed as increase in early apoptotic cells incubated for 72 hrs by Annexin V-FITC/PI staining based flow cytometry analysis; assay type: functional, cell-based; details: dose 0.1-5 µM
MDA-MB-468 [30] = assay: Antiproliferative activity against human MDA-MB-468 cells assessed as lethality at 10 uM after 48 hrs by SRB assay relative to control; assay type: functional
[31] = Antiproliferative activity against human MDA-MB-231 cells assessed as lethality at 10 uM after 48 hrs by SRB assay relative to control; assay type: functional, MDA-MB-23
BT-474 [32] = assay: Antitumor activity against human BT474 cells xenografted in athymic nude mouse assessed as tumor weight at 50 mg/kg, po administered via oral gavage for 5 times in a week for 55 days measured post last dose (reference value: 2.046 g); assay type: functional; details: time 55 day
BT-474 [33] = assay: Antitumor activity against human BT474 cells xenografted in athymic nude mouse assessed as tumor necrosis at 50 mg/kg, po administered via oral gavage for 5 times in a week for 55 days measured post-last dose by H and E staining based immunohistochemical analysis; assay type: functional, organism-based; details: time 55.0 day
MCF7 [34] = assay: Antiproliferative activity against human MCF7 cells assessed as reduction in cell viability incubated for 72 hrs by WST8 assay; assay type: functional, cell-based; details: MCF7, 72 h
[35] = test system: Panel NCI-60 (60 carcinoma cell lines); assay: Antiproliferative activity against human NCI60 cells assessed as mean cell growth at 10 uM after 48 hrs by SRB assay relative to control; assay type: functional
MCF7 [36] = assay: Antiproliferative activity against human MCF7 cells assessed as lethality at 10 uM after 48 hrs by SRB assay relative to control; assay type: functional
in vitro [37] = details: CD-1, mouse, liver microsomes; remark: listed apart in the source
Description: Metabolic stability in CD-1 mouse liver microsomes assessed as parent compound remaining at 100 uM measured after 60 mins in presence of NADPH by LC-MS/MS analysis

[38] = Selectivity ratio of IC50 for antiproliferative activity against human AU565 cells to IC50 for antiproliferative activity against human BT474 cells; assay type: functional

With `CN1CCN(CCCOc2ccc3ncnc(Nc4ccc(OCc5cccc(F)c5)c(Cl)c4)c3c2)CC1` the “fold change (FC)” value (BT-474 [1]) was “<=3”, the Activity [2] was 1.3% and the GI50 (MDA-MB-468 [3]) was 0.4 µM. The Activity (MCF7 [4]) was “inactive”, the Activity (MDA-MB-231 [5]) was “inactive” and the “fold change (FC)” value (BT-474 [6]) was “<=6”. The CLint scaled at 1 h, 100 µM (in vitro [7]) was 5.74 L/h/kg, the “Ratio IC50” value (MCF7 [8]) was “<=20” and the Activity (BT-474 [9]) was “Active”. The half-life at 1 h, 100 µM (in vitro [10]) was 57.4 min, the Activity [11] was “<=78.7%” and the GI50 (T47D) was 1.37 µM. For the same compound, the inhibition of growth at 10 µM [12] was no more than 78.7%, the inhibition of growth at 10 µM (MDA-MB-468 [13]) was 18.8% and the TGI (BT-474 [14]) was “Active”. For the same compound, the Activity (BT-474 [15]) was “Active”, the Activity (BT-474 [16]) was “Active” and the inhibition [17] was 3%. The Activity (AU565 [18]) was “Active”, the IC50 (BT-474 [19]) was 0.083 µM and the remaining at 1 h, 100 µM (in vitro [20]) was 93.5%. The Activity (MDA-MB-231 [21]) was “inactive”, the microsomal CLint at 1 h, 100 µM (in vitro [22]) was 24.2 µL/min/mg and the IC50 (AU565 [23]) was 0.099 µM. For the same compound, the Activity (MCF7 [24]) was “inactive”, the IC50 [25] was 0.0083 µM and the IC50 (MDA-MB-231 [26]) was 0.737 µM. For the same compound, the inhibition [27] was 91%, the Activity (BT-474 [28]) was “Active” and the Activity (BT-474 [29]) was “Dose-dependent effect”. For the same compound, the Activity (MDA-MB-468 [30]) was 11.7%, the Activity [31] was 11.7% and the Activity (BT-474 [32]) was 1.223 g. The Activity (BT-474 [33]) was “Active”, the IC50 (MCF7 [34]) was 1.93 µM and the Activity [35] was 11.85%. For the same compound, the Activity (MCF7 [36]) was 11.7% and the remaining at 1 h, 100 µM (in vitro [37]) was 46.4%.
For `CN(C)CC(=O)Nc1ccc2ncnc(Nc3ccc(Oc4cccc(F)c4)c(Cl)c3)c2c1`, the Activity (BT-474 [1]) was “inactive”, the “fold change (FC)” value (BT-474 [6]) was “<=6” and the “Ratio IC50” value (MCF7 [8]) was “<=20”. The IC50 (BT-474 [19]) was 0.107 µM, the IC50 (AU565 [23]) was 0.663 µM and the IC50 (MDA-MB-231 [26]) was 6.55 µM. The “Ratio IC50” value [38] was 6, the Activity (BT-474 [29]) was “Dose-dependent effect” and the IC50 (MCF7 [34]) was 0.321 µM.
`O=C(O)Cc1ccccc1Nc1c(Cl)cccc1Cl` [DICLOFENAC] showed a CLint scaled at 1 h, 100 µM (in vitro [7]) of 5.49 L/h/kg, a half-life at 1 h, 100 µM (in vitro [10]) of 60 min and a remaining at 1 h, 100 µM (in vitro [20]) of 102%. The microsomal CLint at 1 h, 100 µM (in vitro [22]) was 23.1 µL/min/mg and the remaining at 1 h, 100 µM (in vitro [37]) was 50.2%.
